According to US10785975B2, “Water and feed antimicrobial preservative” (priority 2009, dated 2020):
Where two headings read alike, the source gives them in different places.

Experiments:
Salmonella typhimurium [1] = assay: Study 6: capric acid in acetic or propionic acid against salmonella in poultry feed; format: cell-based; details: Capric/Acetic acids, 24 hours after treatment
Procedure: Commercial poultry feed amended with Salmonella typhimurium was treated with 1 or 3 kg/MT of the solutions listed below. Twenty four hours after treatment, 10 gr of feed was added to 90 ml Butterfield buffer, mixed and then 100 ul of the solution was plated on Standard Plate agar (triplicate plates). Plates were incubated at 37° C. for 24 hours prior to enumeration.

Salmonella typhimurium [2] = assay: Example 3: buffered organic acid mixtures with pelargonic acid in water; format: cell-based
Procedure: Procedure: Propionic and acetic acids were buffered with ammonium hydroxide to a pH of 3 and combined with pelargonic in the ratios above. Acid content of the buffered solutions was determined by weight to weight ratio calculation (weight of acid/total weight of buffered solution) and adjusted to provide an equal acid value for each treatment. […] The pHs of the deionized water solutions were recorded and any problems with solubility noted.
100 ul of a nutrient broth culture of Salmonella typhimurium was added to each dilution tube. After addition, tubes were vortexed and allowed to stand. At 4 and 24 hours after addition of the inoculum, 100 ul of the solution was plated on Standard Plate agar (triplicate plates). Plates were incubated at 37° C. for 24 hours prior to enumeration. The minimum effective dose of each acid was determined by linear regression.

Salmonella typhimurium [3] = assay: Study 4: pelargonic acid (1-20%) in buffered propionic or acetic acid in water; format: cell-based
Procedure: Propionic and acetic acids were buffered with ammonium hydroxide to a pH of 3 and combined with pelargonic in the ratios listed. Acid content of the buffered solutions was determined by weight to weight ratio calculation (weight of acid/total weight of buffered solution) and adjusted to provide an equal acid value for each treatment. […] The pHs of the deionized water solutions were recorded and any problems with solubility noted.
100 ul of a nutrient broth culture of Salmonella typhimurium was added to each dilution tube. After addition, tubes were vortexed and allowed to stand. At 4 and 24 hours after addition of the inoculum, 100 ul of the solution was plated on Standard Plate agar (triplicate plates). Plates were incubated at 37° C. for 24 hours prior to enumeration.

Salmonella typhimurium [4] = assay: Example 1: effect of pH buffering of acetic and propionic acid on antimicrobial activity in water; format: cell-based
Procedure, shortened: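 Acetic and propionic acids buffered with ammonium hydroxide to pH 1–7 in water, then inoculated with Salmonella typhimurium broth culture. Survivors plated at 4 and 24 h, counted after 24 h at 37° C; minimum effective dose derived by linear regression.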

M. gypseum = details: acids tested independently, cited from earlier work
[5] = Product Conc. 0.025 (% total acid solution in water), 4 hr
[6] = Product Conc. 0.025 (% total acid solution in water)
[7] = Product Conc. 0.05 (% total acid solution in water), 4 hr
[8] = Product Conc. 0.05 (% total acid solution in water)
[9] = Product Conc. 0.075 (% total acid solution in water), 4 hr
[10] = Product Conc. 0.075 (% total acid solution in water)
[11] = Product Conc. 0.1 (% total acid solution in water), 4 hr
[12] = Product Conc. 0.1 (% total acid solution in water)
[13] = Product Concentration 0.025 (% total acid solution in water)
[14] = Product Concentration 0.05 (% total acid solution in water)
[15] = Product Conc. 0.025 (% acid solution in water), 4 hr
[16] = Product Conc. 0.025 (% acid solution in water), 24 hr
[17] = Product Conc. 0.05 (% acid solution in water), 4 hr
[18] = Product Conc. 0.05 (% acid solution in water), 24 hr
[19] = Product Conc. 0.075 (% acid solution in water), 4 hr
[20] = Product Conc. 0.075 (% acid solution in water), 24 hr
[21] = Product Conc. 0.1 (% acid solution in water), 4 hr
[22] = Product Conc. 0.1 (% acid solution in water), 24 hr

For `CC(=O)O` [Acetic acid], the “% Reduction” value (Salmonella typhimurium [1]; 1 kg/ton) was 41.3%, the cfu/g (Salmonella typhimurium [1]; 1 kg/ton) was 3367 cfu/g and the “% Reduction” value (Salmonella typhimurium [1]; 3 kg/ton) was 54.6%. For the same molecule, the cfu/g (Salmonella typhimurium [1]; 3 kg/ton) was 2600 cfu/g and the “MIC at 4 HR” value (Salmonella typhimurium [2]; Minimum Inhibitory Concentration of Pelargonic when mixed with acetic or propionic acid (buffered to pH 3), by linear regression, 4 hr) was 0.171.

For `CCC(=O)O` [Propionic pH 3, Propionic acid], the “Salmonella at time Interval 4 hr % reduction” value (Salmonella typhimurium [2]; [5]) was 25%, the “Salmonella at time Interval 4 hr cfu/g” value (Salmonella typhimurium [2]; [5]) was 1133 cfu/g and the “Salmonella at time Interval 24 hr % reduction” value (Salmonella typhimurium [2]; [6]) was 95%. The “Salmonella at time Interval 24 hr cfu/g” value (Salmonella typhimurium [2]; [6]) was 70 cfu/g, the “Salmonella at time Interval 4 hr % reduction” value (Salmonella typhimurium [2]; [7]) was 42% and the “Salmonella at time Interval 4 hr cfu/g” value (Salmonella typhimurium [2]; [7]) was 880 cfu/g. For the same molecule, the “Salmonella at time Interval 24 hr % reduction” value (Salmonella typhimurium [2]; [8]) was 99%, the “Salmonella at time Interval 24 hr cfu/g” value (Salmonella typhimurium [2]; [8]) was 17 cfu/g and the “Salmonella at time Interval 4 hr % reduction” value (Salmonella typhimurium [2]; [9]) was 25%. For the same molecule, the “Salmonella at time Interval 4 hr cfu/g” value (Salmonella typhimurium [2]; [9]) was 1133 cfu/g, the “Salmonella at time Interval 24 hr % reduction” value (Salmonella typhimurium [2]; [10]) was 99% and the “Salmonella at time Interval 24 hr cfu/g” value (Salmonella typhimurium [2]; [10]) was 20 cfu/g. The “Salmonella at time Interval 4 hr % reduction” value (Salmonella typhimurium [2]; [11]) was 44%, the “Salmonella at time Interval 4 hr cfu/g” value (Salmonella typhimurium [2]; [11]) was 857 cfu/g and the “Salmonella at time Interval 24 hr % reduction” value (Salmonella typhimurium [2]; [12]) was 99%. The “Salmonella at time Interval 24 hr cfu/g” value (Salmonella typhimurium [2]; [12]) was 13 cfu/g, the “Salmonella at time Interval 4 hr % reduction” value (Salmonella typhimurium [3]; [13]) was 29% and the “Salmonella at time Interval 4 hr cfu/g” value (Salmonella typhimurium [3]; [13]) was 990 cfu/g. For the same molecule, the “Salmonella at time Interval 24 hr % reduction” value (Salmonella typhimurium [3]; [13]) was 91%, the “Salmonella at time Interval 24 hr cfu/g” value (Salmonella typhimurium [3]; [13]) was 130 cfu/g and the “Salmonella at time Interval 4 hr % reduction” value (Salmonella typhimurium [3]; [14]) was 29%. The “Salmonella at time Interval 4 hr cfu/g” value (Salmonella typhimurium [3]; [14]) was 1000 cfu/g, the “Salmonella at time Interval 24 hr % reduction” value (Salmonella typhimurium [3]; [14]) was 96% and the “Salmonella at time Interval 24 hr cfu/g” value (Salmonella typhimurium [3]; [14]) was 50 cfu/g. The “MIC at 4 Hr” value (Salmonella typhimurium [4]; Minimum Inhibitory Concentrations, by linear regression over 0.025-0.1% acid solutions, 4 hr, pH 3) was 0.149, the “MIC at 24 HR” value (Salmonella typhimurium [4]; Minimum Inhibitory Concentrations, by linear regression over 0.025-0.1% acid solutions, 24 hr, pH 3) was 0.069 and the “Salmonella at time Interval 4 hr % reduction” value (Salmonella typhimurium [4]; [15]) was 2%. For the same molecule, the “Salmonella at time Interval 4 hr cfu/g” value (Salmonella typhimurium [4]; [15]) was 1467 cfu/g, the “Salmonella at time Interval 24 hr % reduction” value (Salmonella typhimurium [4]; [16]) was 84% and the “Salmonella at time Interval 24 hr cfu/g” value (Salmonella typhimurium [4]; [16]) was 190 cfu/g. For the same molecule, the “Salmonella at time Interval 4 hr % reduction” value (Salmonella typhimurium [4]; [17]) was 44%, the “Salmonella at time Interval 4 hr cfu/g” value (Salmonella typhimurium [4]; [17]) was 847 cfu/g and the “Salmonella at time Interval 24 hr % reduction” value (Salmonella typhimurium [4]; [18]) was 93%. For the same molecule, the “Salmonella at time Interval 24 hr cfu/g” value (Salmonella typhimurium [4]; [18]) was 83 cfu/g, the “Salmonella at time Interval 4 hr % reduction” value (Salmonella typhimurium [4]; [19]) was 35% and the “Salmonella at time Interval 4 hr cfu/g” value (Salmonella typhimurium [4]; [19]) was 973 cfu/g. The “Salmonella at time Interval 24 hr % reduction” value (Salmonella typhimurium [4]; [20]) was 95%, the “Salmonella at time Interval 24 hr cfu/g” value (Salmonella typhimurium [4]; [20]) was 60 cfu/g and the “Salmonella at time Interval 4 hr % reduction” value (Salmonella typhimurium [4]; [21]) was 60%. The “Salmonella at time Interval 4 hr cfu/g” value (Salmonella typhimurium [4]; [21]) was 603 cfu/g, the “Salmonella at time Interval 24 hr % reduction” value (Salmonella typhimurium [4]; [22]) was 98% and the “Salmonella at time Interval 24 hr cfu/g” value (Salmonella typhimurium [4]; [22]) was 27 cfu/g.

In the case of `CCCCCCCCCC(=O)O` [capric acid], the “minimum inhibitory concentration (MTC) to prevent growth of M. gypseum” value (M. gypseum; in liquid media) is given as 75 µg/mL and the “minimum inhibitory concentration (MTC) to prevent growth of M. gypseum” value (M. gypseum; on solid media) is given as 20 µg/mL.
